Assay results published in patent US8314126B2, “Disubstituted phenylpiperdines/piperazines as modulators of dopamine neurotransmission” (NSAB, Filial af Neurosearch Sweden AB, Sverige, priority 2004, dated 2012).
Counter-ions that a name gives are not always drawn.

System: DOPAC (3,4-dihydroxyphenylacetic acid) in the rat striatum
Assay: Increase of DOPAC in the rat striatum (in vivo neurochemistry)
Settings: Rattus norvegicus, sc, read-out: ED50 DOPAC
From the text: After the behavioural activity sessions, the rats were decapitated and their brains rapidly taken out and put on an ice-cold petri-dish. The limbic forebrain, the striatum, the frontal cortex and the remaining hemispheral parts of each rat were dissected and frozen. Each brain part was subsequently analyzed with respect to its content of monoamines and their metabolites.
The monoamine transmitter substances (NA (noradrenaline), DA (dopamine), 5-HT (serotonin)) as well as their amine (NM (normethanephrine), 3-MT (3-methoxytyramine)) and acid (DOPAC (3,4-dihydroxylphenylacetic acid), 5-HIAA (5-hydroxyindoleacetic acid), HVA (homovamllic acid)) metabolites are quantified in brain tissue homogenates by HPLC separations and electrochemical detection
The analytical method is based on two chromatographic separations dedicated for amines or acids. Two chromatographic systems share a common auto injector with a 10-port valve and two sample loops for simultaneous injection on the two systems. Both systems are equipped with a reverse phase column (Luna C18(2), dp 3 μM, 50*2 mm i.d., Phenomenex) and electrochemical detection is accomplished at two potentials on glassy carbon electrodes (MF-1000, Bioanalytical Systems, Inc.). The column effluent is passed via a T-connection to the detection cell or to a waste outlet. This is accomplished by two solenoid valves, which block either the waste or detector outlet. By preventing the chromatographic front from reaching the detector, better detection conditions are achieved. […] Detection potentials relative to Ag/AgCl reference are 0.45 and 0.60V. […] Detection potentials relative to Ag/AgCl reference are 0.45 and 0.65V.
ED50 values for the increase of DOPAC in striatum are calculated by curve fitting.

Row | SMILES | ED50 [µmol/kg]
1 | CCCN1CCC(c2cccc(C(F)(F)F)c2)CC1 [reference compound] | 84

Same assay, conditions: sc; increase of DOPAC in rat striatum after systemic administration (s.c.); maximal effects limited to 350-400% of control; range covers 95% of fits; read-out: ED50 DOPAC

Row | SMILES | ED50 [µmol/kg]
2 | CCN1CCC(c2cccc(C(=O)C(F)(F)F)c2F)CC1 | 12
3 | CCN1CCC(c2cccc(S(C)(=O)=O)c2F)CC1 [drawing 10] | 68
4 | COCCN1CCC(c2cccc(S(C)(=O)=O)c2F)CC1 [drawing 12] | 84
5 | COCCN1CCC(c2cccc(S(C)(=O)=O)c2)CC1 [reference compound] | 208

System: not given
Assay: not given
Settings: not given

Row | SMILES | melting point [°C]
6 | CCN1CCC(c2cccc(C(C)=O)c2F)CC1 | 199 to 202
7 | CCN1CCC(c2cccc(S(=O)(=O)N(C)C)c2F)CC1 (as salt: fumaric acid salt) | 151 to 152
8 | CCN1CCC(c2cccc(C(=O)C(F)(F)F)c2F)CC1 (as salt: fumaric acid salt) | 109 to 110
9 | CCN1CCC(c2cccc(S(=O)(=O)C(F)(F)F)c2F)CC1 (as salt: hydrochloric acid salt) | 189 to 191
10 | CCCN1CCC(c2cccc(S(C)(=O)=O)c2Cl)CC1 (as salt: hydrochloric acid salt) [Example 3, 4-[2-CHLORO-3-(METHYLSULFONYL)PHENYL]-1-PROPYLPIPERIDINE] | 250 to 252
11 | CCCN1CCC(c2cccc(S(C)(=O)=O)c2C)CC1 (as salt: hydrochloric acid salt) [Example 4, 4-[2-METHYL-3-(METHYLSULFONYL)PHENYL]-1-PROPYLPIPERIDINE] | 233 to 235
12 | CCCN1CCC(c2cccc(S(C)(=O)=O)c2N)CC1 (as salt: hydrochloric acid salt) [Example 6, 2-(METHYLSULFONYL)-6-(1-PROPYLPIPERIDIN-4-YL)ANILINE] | 232 to 233
13 | CS(=O)(=O)c1cccc(C2CCN(CCC3OCCO3)CC2)c1F (as salt: hydrochloric acid salt) [Example 26, 1-[2-(1,3-DIOXOLAN-2-YL)ETHYL]-4-[2-FLUORO-3-(METHYLSULFONYL)PHENYL]-PIPERIDINE] | 224 to 225
14 | C=CCN1CCC(c2cccc(S(C)(=O)=O)c2F)CC1 (as salt: hydrochloric acid salt) [Example 40, 1-ALLYL-4-[2-FLUORO-3-(METHYLSULFONYL)PHENYL]PIPERIDINE] | 259 to 261
15 | C=CCN1CCC(c2cccc(C(F)(F)F)c2F)CC1 (as salt: hydrochloric acid salt) [Example 70, 1-ALLYL-4-[2-FLUORO-3-(TRIFLUOROMETHYL)PHENYL]PIPERIDINE] | 224 to 226
16 | CCN1CCC(c2cccc(S(C)(=O)=O)c2Cl)CC1 (as salt: hydrochloride) [Example 28, 4-[2-CHLORO-3-(METHYLSULFONYL)PHENYL]-1-ETHYLPIPERIDINE] | 264 to 265
17 | CCN1CCC(c2cccc(S(C)(=O)=O)c2F)CC1 (as salt: maleic acid salt) [Example 2, 1-ETHYL-4-[2-FLUORO-3-(METHYLSULFONYL)PHENYL]-PIPERIDINE] | 112 to 113
18 | CCN1CCC(c2cccc(OS(=O)(=O)C(F)(F)F)c2F)CC1 (as salt: methanesulfonate) [Example 34, 3-(1-ETHYLPIPERIDIN-4-YL)-2-FLUOROPHENYL TRIFLUOROMETHANESULFONATE] | 158 to 159

Second part, the molecule after the results:

Row | melting point [°C] | SMILES
19 | 234 to 236 | CCCN1CCN(c2cccc(C#N)c2C(F)(F)F)CC1 (as salt: hydrochloric acid salt)
20 | 241 to 243 | CCCN1CCN(c2cccc(S(C)(=O)=O)c2F)CC1 (as salt: hydrochloric acid salt)
21 | 214 to 216 | CCN1CCN(c2cccc(S(C)(=O)=O)c2F)CC1 (as salt: hydrochloric acid salt)
22 | 255 to 257 | CCCN1CCC(c2cccc(S(C)(=O)=O)c2F)CC1 (as salt: hydrochloric acid salt) [Example 1, 4-[2-FLUORO-3-(METHYLSULFONYL)PHENYL]-1-PROPYLPIPERIDINE]
23 | 272 to 274 | CCCN1CCC(c2cccc(C(F)(F)F)c2C#N)CC1 (as salt: hydrochloric acid salt) [Example 7, 2-(1-PROPYLPIPERIDIN-4-YL)-6-(TRIFLUOROMETHYL)BENZONITRILE]
24 | 235.5 | CCCN1CCC(c2cccc(C(F)(F)F)c2OC)CC1 (as salt: hydrochloric acid salt) [Example 8, 4-[2-METHOXY-3-(TRIFLUOROMETHYL)PHENYL]-1-PROPYLPIPERIDINE]
25 | 180 to 181 | CCCN1CCN(c2cccc(C(F)(F)F)c2F)CC1 (as salt: hydrochloric acid salt) [Example 9, 1-[2-FLUORO-3-(TRIFLUOROMETHYL)PHENYL]-4-PROPYLPIPERAZINE]
26 | 170 to 171 | COCCN1CCN(c2cccc(C(F)(F)F)c2F)CC1 (as salt: hydrochloric acid salt) [Example 10, 1-[2-FLUORO-3-(TRIFLUOROMETHYL)PHENYL]-4-(2-METHOXYETHYL)PIPERAZINE]
27 | 220 to 221 | CCCN1CCN(c2cccc(Cl)c2Cl)CC1 (as salt: hydrochloric acid salt) [Example 11, 1-(2,3-DICHLOROPHENYL)-4-PROPYLPIPERAZINE]
28 | 266 to 269 | CCCN1CCC(c2cccc(C#N)c2C(F)(F)F)CC1 (as salt: hydrochloric acid salt) [Example 13, 3-(1-PROPYLPIPERIDIN-4-YL)-2-(TRIFLUORO-METHYL)BENZONITRILE]
29 | 224 to 226 | OCCN1CCC(c2cccc(C(F)(F)F)c2F)CC1 (as salt: hydrochloric acid salt) [Example 27, 2-{4-[2-FLUORO-3-(TRIFLUOROMETHYL)PHENYL]PIPERIDIN-1-YL}ETHANOL]
30 | 218 to 220 | CCCN1CCC(c2cccc(C(F)(F)F)c2O)CC1 (as salt: hydrochloric acid salt) [Example 29, 2-(1-PROPYLPIPERIDIN-4-YL)-6-(TRIFLUOROMETHYL)PHENOL]
31 | 203 to 205 | CCCN1CCC(c2cccc(OC(F)(F)F)c2O)CC1 (as salt: hydrochloric acid salt) [Example 30, 2-(1-PROPYLPIPERIDIN-4-YL)-6-(TRIFLUOROMETHOXY)PHENOL]
32 | 259 to 261 | OCCCN1CCC(c2cccc(C(F)(F)F)c2F)CC1 (as salt: hydrochloric acid salt) [Example 32, 3-{4-[2-FLUORO-3-(TRIFLUOROMETHYL)PHENYL]PIPERIDIN-1-YL}PROPAN-1-OL]
33 | 180 to 181 | COCCN1CCC(c2cccc(C(F)(F)F)c2F)CC1 (as salt: hydrochloric acid salt) [Example 47, 4-[2-FLUORO-3-(TRIFLUOROMETHYL)PHENYL]-1-(2-METHOXYETHYL)PIPERIDINE]
34 | 258 to 260 | CCCN1CCC(c2cccc(C(F)(F)F)c2F)CC1 (as salt: hydrochloric acid salt) [Example 71, 4-[2-FLUORO-3-(TRIFLUOROMETHYL)PHENYL]-1-PROPYLPIPERIDINE]

System: drug-naive rats
Assay: Locomotor activity in drug-naive rats
Settings: drug-naive habituated rats, 11 μmol/kg, recorded between 30 and 60 minutes, ± SEM

Row | SMILES | Locomotor activity
35 | CCN1CCC(c2cccc(S(C)(=O)=O)c2F)CC1 [drawing 36] | 2254 ± 804 counts/30 min
36 | COCCN1CCC(c2cccc(S(C)(=O)=O)c2F)CC1 [drawing 38] | 1836 ± 504 (P = 0.064) counts/30 min

Same assay, conditions: drug-naive habituated rats, 33 μmol/kg, recorded between 30 and 60 minutes, ± SEM

Row | SMILES | Locomotor activity
37 | CCN1CCC(c2cccc(S(C)(=O)=O)c2F)CC1 [drawing 36] | 2499 ± 766 (P = 0.1) counts/30 min
38 | COCCN1CCC(c2cccc(S(C)(=O)=O)c2F)CC1 [drawing 38] | 1258 ± 623 counts/30 min

Same assay, conditions: drug-naive habituated rats, 100 μmol/kg, recorded between 30 and 60 minutes, ± SEM

Row | SMILES | Locomotor activity
39 | CCN1CCC(c2cccc(S(C)(=O)=O)c2F)CC1 [drawing 36] | 2418 ± 703 (P = 0.1) counts/30 min
40 | COCCN1CCC(c2cccc(S(C)(=O)=O)c2F)CC1 [drawing 38] | 1085 ± 211 counts/30 min

Same assay, conditions: drug-naive rats, 11 μmol/kg, recorded for 60 minutes, ± SEM

Row | SMILES | Locomotor activity [counts/60 min]
41 | CCN1CCC(c2cccc(S(C)(=O)=O)c2F)CC1 [drawing 29] | 13113 ± 1795

Same assay, conditions: drug-naive rats, 33 μmol/kg, recorded for 60 minutes, ± SEM

Row | SMILES | Locomotor activity [counts/60 min]
42 | CCN1CCC(c2cccc(S(C)(=O)=O)c2F)CC1 [drawing 29] | 12744 ± 1291

Same assay, conditions: drug-naive rats, 100 μmol/kg, recorded for 60 minutes, ± SEM

Row | SMILES | Locomotor activity [counts/60 min]
43 | CCN1CCC(c2cccc(S(C)(=O)=O)c2F)CC1 [drawing 29] | 12530 ± 2577
